Tests used:
[1] = target: T1, human cloned H1 receptor (Homo sapiens, UniProt P35367); test: CHO-K1 H1R binding assay (3H-pyrilamine displacement); details: CHO-K1 membranes, 3H-pyrilamine 2 nM, 3 hours at 37° C.; read-out: CHOH1 KI
T1 construct: expressed in transfected cells; host or cells: CHO-K1
Experimental: CHO—K1 cells expressing the human cloned H1 receptor are grown to confluence in tissue culture dishes. Cells are harvested using D-PBS buffer (JRH Biosciences), kept at 4° C., centrifuging to pellet cells (4° C., 500 g, 10 min). The final cell pellet is homogenized and resuspended using Tris/sucrose buffer (20 mM Tris, 250 mM sucrose, pH 74 at 4° C. Aliquots of the membrane preparation are stored at −70° C.
On the day of assay, the membrane preparation is thawed and centrifuged (TLA100.3 rotor, 4° C., 15 min, 23,000 rpm). The pellet is resuspended in Tris/sucrose buffer initially and then diluted further as necessary using assay buffer A (50 mM Na/KPO4, 2 mM MgCl2, 0.5% (w/v) BSA, pH 7.5).
For the binding assay, the membrane preparation, test compound and ^3H-pyrilamine (2 nM final) in buffer A with 1% (v/v) DMSO final are incubated in a 96-well polypropylene plate for 3 hours at 37° C. Non-specific binding is determined in the presence of 10 μM pyrilamine. A 96-well harvester (Packard) is used to harvest the 96-well plate onto a GF/B filter plate pre-treated with 0.1% (v/v) PEI. The plate is counted in a Packard Topcounter after adding Microscint 20 (Packard) scintillation fluid. The Ki for each compound at the histamine H1 receptor is then calculated from these counts.

[2] = target: T2, human 5-lipoxygenase enzyme (Homo sapiens, UniProt P09917); test: Inhibition of LTB4 production in human whole blood stimulated with calcium ionophore A23187; format: cell-based; details: A23187 50 μM, LTB4 by EIA, read-out: HWB IC50
T2 construct: Blood is drawn from normal human volunteers into tubes containing heparin; endogenous in cells; host or cells: human whole blood, heparinized, stimulated with A23187
T2 sequence (P09917 1-674): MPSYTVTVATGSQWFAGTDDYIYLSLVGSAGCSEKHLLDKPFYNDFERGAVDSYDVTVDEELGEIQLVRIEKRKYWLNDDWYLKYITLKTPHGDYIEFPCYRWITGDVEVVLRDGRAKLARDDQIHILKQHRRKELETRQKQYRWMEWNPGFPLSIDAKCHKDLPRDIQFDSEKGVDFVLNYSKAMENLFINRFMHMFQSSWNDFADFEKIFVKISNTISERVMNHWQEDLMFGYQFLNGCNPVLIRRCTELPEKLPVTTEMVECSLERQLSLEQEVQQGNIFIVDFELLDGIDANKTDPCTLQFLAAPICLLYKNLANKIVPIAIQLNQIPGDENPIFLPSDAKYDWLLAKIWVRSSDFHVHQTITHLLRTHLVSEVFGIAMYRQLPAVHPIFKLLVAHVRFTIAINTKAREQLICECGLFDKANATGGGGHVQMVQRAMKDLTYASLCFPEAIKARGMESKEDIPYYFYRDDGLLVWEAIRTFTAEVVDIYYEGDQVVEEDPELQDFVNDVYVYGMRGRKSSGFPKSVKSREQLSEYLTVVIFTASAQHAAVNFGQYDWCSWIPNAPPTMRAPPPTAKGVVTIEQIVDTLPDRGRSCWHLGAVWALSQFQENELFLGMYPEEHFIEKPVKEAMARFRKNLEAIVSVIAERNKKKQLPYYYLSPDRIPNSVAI
Experimental: This assay examines the ability of a compound to inhibit leukotriene B4 Production from human blood stimulated with calcium ionophore. As this production of leukotriene B4 is mediated via the activation of the 5-lipoxygenase enzyme, this assay is predictive of a compound's ability to inhibit the human 5-lipoxygenase enzyme.
The procedure for the assay is as follows. Blood is drawn from normal human volunteers into tubes containing heparin. 1 ml of the heparinized blood is pipetted into a 1.5 ml polypropylene tube. To this sample is added either different concentrations of the test compound (5 μl) dissolved in DMSO or 5 μl of DMSO as a vehicle control. These samples are incubated in a water bath, at […] for 15 min. […] From this a percent inhibition of LTB4 production by each concentration of test compound is calculated and the IC50 for inhibition of LTB4 production for each test compound is determined.

T1 sequence (P35367 whole entry): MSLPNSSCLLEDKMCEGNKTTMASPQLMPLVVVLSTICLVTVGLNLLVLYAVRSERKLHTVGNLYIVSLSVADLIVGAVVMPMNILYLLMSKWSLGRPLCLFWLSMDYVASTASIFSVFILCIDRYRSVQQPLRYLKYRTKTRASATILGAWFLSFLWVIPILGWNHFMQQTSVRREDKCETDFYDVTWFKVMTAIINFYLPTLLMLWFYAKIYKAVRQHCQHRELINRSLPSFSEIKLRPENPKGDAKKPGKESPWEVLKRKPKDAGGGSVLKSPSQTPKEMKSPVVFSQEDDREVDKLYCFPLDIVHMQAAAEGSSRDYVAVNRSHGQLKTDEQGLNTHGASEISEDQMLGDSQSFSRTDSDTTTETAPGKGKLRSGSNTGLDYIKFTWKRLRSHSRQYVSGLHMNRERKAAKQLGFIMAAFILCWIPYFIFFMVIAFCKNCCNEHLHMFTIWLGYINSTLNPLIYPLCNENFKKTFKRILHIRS

Ki [1]: 130 nM
IC50 [2]: 3630 nM
Compound: C[C@@H](c1ccc(OCCN2CCN(C(c3ccc(F)cc3)c3ccc(F)cc3)CC2)cc1)N(O)C(N)=O (racemic) [Compound 11, amino-N-{[4-(2-{4-[bis(4-fluorophenyl)methyl]piperazinyl}ethoxy)phenyl]ethyl}-N-hydroxyamide]

— patent US6894059B1, “Compounds and methods for treatment of asthma, allergy and inflammatory disorders” (UCB S.A., priority 1999, dated 2005)
